These are literature values, as cited in patent publication US11819508B2 (priority 2020, dated 2023).

Like-named read-outs stand apart in the source and are kept apart here.

The conditions of data set [1]: in vivo.
Data set [2] relates to Covid-19. As to conditions: subcutaneous; subjects hospitalized with Covid-19.

Regarding “2-[[(hexadecyloxy)hydroxyphosphenyl]oxy]-N,N,N-trimethylethylammonium inner salt [Miltefosine]”, the solubility entry is “freely soluble” (in aqueous solutions); “readily soluble” (in water or saline solutions); “freely soluble” (in water, 0.1 N HCl or NaOH, methanol, and ethanol). Further, in data set [1], the half-life entry is on record as “long half-life”.

B1: IFN β-1b: cytokine in the interferon family, subcutaneous (protein, UniProt P01574 22-187, looked up, variant C17S)
Interferon beta: MSYNLLGFLQRSSNFQSQKLLWQLNGRLEYCLKDRMNFDIPEEIKQLQQFQKEDAALTIYEMLQNIFAIFRQDSSSTGWNETIVENLLANVYHQINHLKTVLEEKLEKEDFTRGKLMSSLHLKRYYGRILHYLKAKEYSHCAWTIVRVEILRNFYFINRLTGYLRN
modifications: lacks N-terminal Met1, non-glycosylated
notes: cytokine in the interferon family, subcutaneous
B1: the “clinical improvement as assessed by NEWS 2 and SOFA score and shortened hospital stay” value in data set [2] is “clinical improvement”.
